Experimental data: article PMC6757289, “Design and Characterization of SGK3-PROTAC1, an Isoform Specific SGK3 Kinase PROTAC Degrader” (ACS Chemical Biology, 2019)

Experiments:
[1] = system: MOXD1; assay: TMT global proteomic analysis of HEK293 cells; type: cell-based, Homo sapiens; details: HEK293, 0.3 μM, 8 h
Method: (§1) To establish the specificity of SGK3-PROTAC1 employing an unbiased approach, we performed quantitative Tandem–Mass–Tag (TMT)-labeled global proteomic analysis of HEK293 cells treated in the presence or absence of 0.3 μM SGK3-PROTAC1 compared to either 0.3 μM cisSGK3-PROTAC1 or DMSO for 8 h. Experiments were undertaken in triplicate, and analysis in Proteome Discoverer v2.2 using the Mascot search engine allowed relative quantification of 8766 proteins.
(§2) Figure 4 TMT proteomic analysis of HEK293 cells treated with SGK3-PROTAC1. (A) Cells were treated with DMSO (control), SGK3-PROTAC1 (0.3 μM), or cisSGK3-PROTAC1 (0.3 μM) for 8 h and lysed. Lysates were subjected to immunoblot analysis with the indicated antibodies. (B) Lysates were examined by quantitative proteomics. […]
(§3) Cell culture and proteomic sample preparation
(§4) Cells pellets were lysed with 2 ml of lysis buffer (8 M Urea, 50 mM Ammonium bicarbonate containing protease inhibitor and phosphatase inhibitor). The sample were left on ice for 15 min and were then sonicated for 5 min in ice-cold water bath under high intensity with 30 sec on and off. After sonication, benzonase® endonuclease (Merck Millipore) with the volume ratio of 1: 100 were added into the lysate to degrade DNA and RNA. The lysate were then centrifuged at 12,000 rpm for 15 min at 4 °C, and supernatants were transferred into new eppendorf tubes. The protein concentration were measured with BCA assay (Pierce™ BCA Protein Assay Kit, Thermo). The lysate from each sample was reduced with 5 mM DTT at 45 °C for 30 min. Lysates were briefly centrifuged and were cool down to room temperature before alkylation in the dark with 10 mM iodoacetamide at room temperature. The alkylation was then quenched by the addition of 5 mM DTT. Samples were first digested by Lys-C with the weight ratio of 1:200 (w/w) for 4 h at 30 °c. Then, sample were diluted with 50 mM ammonium bicarbonate to 1.5 M Urea concentration. Samples were then digested with trypsin (Pierce trypsin, Thermo) at an enzyme to protein ratio of 1:50 (w/w) at room temperature with gentle shaking for overnight.
(§5) The digest was stopped by the addition of 1% TFA (v/v), centrifuged at 10,000 g for 10 min at room temperature.
(§6) The supernatant were desalted on 200 mg SepPak tC18 cartridge (Waters). Desalted peptides were dried by vacuum centrifugation using Speedvac (Thermo).
(§7) TMT labelling and Basic C18 reverse phase (bRP) chromatography fractionation Each sample (200 μg of peptides each) was re-suspended in 100 μL of 100 mM TEAB buffer. The TMT labelling reagents were equilibrated to room temperature and 41 μL anhydrous acetonitrile was added to each reagent channel and softly vortexed for 10 min. Peptides were transferred to the corresponding TMT channels and incubated for 1 h at room temperature. The reaction was quenched with 8 μL of 5% hydroxylamine. To ensure complete labelling, 1 µg of labelled samples from each channel were analyzed by LC-MS/MS prior to mix. After evaluation, the complete TMT labelled 9 samples were then combined, acidified and dried. Sep-Pak desalting was then performed and the elution was dried to completeness.
(§8) Ultimate 3000 high-pressure liquid chromatography (HPLC) system (Dionex) were used for basic C18 reverse phase chromatography fractionation operating at 569 µL/min with two buffers: buffer A (10 mM ammonium formate, pH 10) and buffer B (80% ACN, 10 mM ammonium formate, pH 10). The desalted mixture of TMT-labelled peptides were resuspended in 200 µL of buffer A (10 mM ammonium formate, pH10) and separated on a C18 reverse phase column (4.6 × 250 mm, 3.5 μm, Waters) with a gradient from 3% B to 12.5 % B in 10 min, […]
(§9) min, 100% for 5 min, ramping to 3% B in 2.5 min and then 3% for 10 min. A total of 90 fractions (1 min per fraction) were collected before further concatenation into 30 final fractions. Each fraction was then dried and desalted over a C18 StageTip prior to analysis by mass spectrometry. […]

[2] = system: S100A7; assay: TMT global proteomic analysis of HEK293 cells; type: cell-based, Homo sapiens; details: HEK293, 0.3 μM, 8 h
Method: as §1, §2, §3, §4, §5, §6, §7, §8, §9

[3] = system: SDC2; assay: TMT global proteomic analysis of HEK293 cells; type: cell-based, Homo sapiens; details: HEK293, 0.3 μM, 8 h
Method: as §1, §2, §3, §4, §5, §6, §7, §8, §9

[4] = system: mTORC1-mediated phosphorylation of S6K1 at Thr389; assay: mTORC1 signaling in CAMA-1 cells treated with PI3K or Akt inhibitor, immunoblot; type: cell-based; details: CAMA-1, 5 days 1 μM GDC0941 or AZD5363; 0.3 μM
Method: We therefore aimed to investigate the effect that degradation of SGK3 would have on this resistance pathway and whether SGK3-PROTAC1 treatment could reverse inhibitor resistance. To investigate the effect of SGK3-PROTAC1 under these conditions, we treated CAMA-1 (Figure 5A,C) or ZR-75-1 (Figure 5B,D) for 5 days with either a class 1A PI3K inhibitor (GDC0941 1 μM;[38]Figure 5A,B) or an Akt inhibitor (AZD5363, 1 μM;[39]Figure 5C,D). These cells were treated with SGK3-PROTAC1 or cisSGK3-PROTAC1 (0.3 μM) for either 5 days in combination with the inhibitors or 8 h before lysis.
Figure 5 SGK3-PROTAC1-mediated degradation of SGK3 inhibits Akt-independent activation of mTORC1 in cancer cell lines treated with Akt or PI3K inhibitors. CAMA-1 (A, C) or ZR-75-1 (B, D) were treated for 5 days with 1 μM GDC0941 (A, B) or 1 μM AZD5363 (C, D). […]
All cell treatments were carried out as described in figure legends, to a final DMSO concentration of 0.1% (v/v). Lysates were quantified. […] Lysate concentration was quantified by Bradford Assay, and 10 μg of lysate was loaded in the LDS sample buffer for SDS-PAGE electrophoresis on Novex 4–12% Bis–Tris gels. […] The signal was produced with near-infrared secondary antibodies and detected using a Licor Biosciences Odyssey System, and the signal was quantified in Image Studio Lite.

Cc1ccc(F)c(S(=O)(=O)Nc2ccc(-c3nc(OC[C@H]4CN(CCCCCCOCCOCCOCC(=O)N[C@H](C(=O)N5C[C@H](O)C[C@H]5C(=O)NCc5ccc(-c6scnc6C)cc5)C(C)(C)C)CCO4)c4cn[nH]c4n3)cc2)c1 [SGK3-PROTAC1]
Abundances (Grouped) [1]: 90.2
Ratio: (SGK3-PROTAC1) / (cSGK3-PROTAC1) [1]: 1.082
Ratio: (compound) / (DMSO) [1]: 0.713
Abundances (Grouped) [2]: 90.9
Ratio: (SGK3-PROTAC1) / (cSGK3-PROTAC1) [2]: 1.014
Ratio: (compound) / (DMSO) [2]: 0.645
Abundances (Grouped) [3]: 106.6
Ratio: (SGK3-PROTAC1) / (cSGK3-PROTAC1) [3]: 2.505
Ratio: (compound) / (DMSO) [3]: 0.665
phosphorylation of S6K1 at Thr389 [4]: suppressed

Cc1ccc(F)c(S(=O)(=O)Nc2ccc(-c3nc(OC[C@H]4CN(CCCCCCOCCOCCOCC(=O)N[C@H](C(=O)N5C[C@@H](O)C[C@H]5C(=O)NCc5ccc(-c6scnc6C)cc5)C(C)(C)C)CCO4)c4cn[nH]c4n3)cc2)c1 [cisSGK3-PROTAC1]
Abundances (Grouped) [1]: 83.4
Ratio: (compound) / (DMSO) [1]: 0.656
Abundances (Grouped) [2]: 90.1
Ratio: (compound) / (DMSO) [2]: 1.695
Abundances (Grouped) [3]: 37.8
Ratio: (compound) / (DMSO) [3]: 0.266
phosphorylation of S6K1 at Thr389 [4]: no significant effect
